Data set [1] deals with PD1 signal sequence plus 10 amino acids fused to Gaussia Luciferase (PD1-ss+10aa/Gaussia Luciferase). The data set is described as follows: Dox Induced PD1-ss-Gluc Assay. Type of data set: cell-based. To be noted: 24 hr, Dox inducible, 293FRT/TO cells; read-out: 24 hr Dox Inducible PD1ssGluc 293FRT/TO: Mean IC50. The essentials:
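Stable Flp-In 293 T-REx line expressing the fusion under tetracycline-inducible control, plated the day before assay. Compound dilutions added with doxycycline and incubated at 37 °C, 5% CO2; unspecified stereocentres mean data refer to stereoisomer mixtures.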

For data set [2], the system named is full length TNFα (amino acids 1-233) fused to Gaussia Luciferase. Description: Dox Induced TNFα-FL-Gluc Assay. Type of data set: cell-based. To be noted: 24 hr, Dox inducible, 293FRT/TO cells; read-out: 24 hr Dox Inducible TNFaFLGluc 293FRT/TO: Mean IC50. The gist of the method:
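Stable Flp-In 293 T-REx line expressing doxycycline-inducible full-length TNFα fused to Gaussia luciferase; cells plated the day before, then treated with compound dilutions in doxycycline-containing medium at 37° C, 5% CO2. Unspecified stereocentres mean stereoisomer mixtures were tested.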

In data set [3] the test system is full length IL-2 (amino acids 1-153) fused to Gaussia Luciferase. Description: Dox Induced IL2-FL-Gluc Assay. To be noted: 24 hr, Dox inducible, 293FRT/TO cells; read-out: 24 hr Dox Inducible IL2FLGluc 293FRT/TO: Mean IC50. The format is cell-based. The gist of the method:
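Flp-In 293 T-REx stable line expressing full-length IL-2 (aa 1-153) with C-terminal Gaussia luciferase fusion under doxycycline-inducible control. Cells plated the day before; compound dilutions added in DMSO/media containing doxycycline, incubated at 37° C, 5% CO2.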

The subject of data set [4] is HER3 signal sequence plus 4 amino acids fused to Gaussia Luciferase (HER3-ss+4aa/Gaussia Luciferase). Description: Dox Induced HER3-ss-Gluc Assay. Type of data set: cell-based. To be noted: 24 hr, doxycycline induced, Flp-In 293 T-REx cells; read-out: 24 hr Dox Inducible Her3(ss + 4) Gluc 293FRT/TO: Mean 1050. The gist of the method:
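Stable Flp-In 293 T-REx line expressing HER3 signal sequence+4aa/Gaussia luciferase under doxycycline-inducible control. Cells plated the day before; compound dilutions added in doxycycline-containing medium and incubated at 37° C, 5% CO2.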

Data set [5] has as its system multiple myeloma cell line NCl-H929. The data set is described as follows: H929 Cell Viability Assay. The format is cell-based, human. To be noted: Homo sapiens, NCI-H929, 48 h, H929, Celltiter-Glo. The essentials: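 NCI-H929 myeloma cells in RPMI 1640 with 10% FBS were treated with compound dilutions for 48 h at 37 °C, and viability was then read by CellTiter-Glo luminescence. Compounds drawn without stereochemistry were tested as stereoisomer mixtures.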

Data set [6] concerns multiple myeloma cell line U266B1. The data set is described as follows: U266 Cell Viability Assay. The format is cell-based, human. To be noted: Homo sapiens, U-266; 48 hr, U266, Celltiter-Glo. The essentials: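 U266B1 myeloma cells in RPMI 1640 with 10% FBS were treated with compound dilutions for 48 h at 37° C, 5% CO2. Viability was read as CellTiter-Glo luminescence. Data for structures drawn without stereochemistry refer to stereoisomer mixtures.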

Data set [7] can be described thus: In Vitro Microsome Stability Assay (human). To be noted: human liver microsomes, 30 min w/ NADPH. The format is in vitro ADME. The gist of the method:
(§1)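 Test article, added from a 0.25 mM DMSO stock, was incubated with liver microsomes (20 mg/mL stock) in 0.1 M potassium phosphate at 37° C, with the reaction started by NADPH. Samples were quenched with acetonitrile containing internal standard at 0 and 30 min and analysed by LC-MS/MS. Values are % remaining at 30 min versus 0 min, using IS-normalised AUC ratios.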

The nature of data set [8]: In Vitro Microsome Stability Assay (mouse). The format is in vitro ADME. To be noted: mouse liver microsomes, 30 min w/ NADPH. The essentials:
as §1

The nature of data set [9]: In Vitro Microsome Stability Assay (rat). Type of data set: in vitro ADME. To be noted: rat liver microsomes, 30 min w/ NADPH. The essentials: as §1
Data set [10] in a line: In Vitro Microsome Stability Assay (monkey). The format is in vitro ADME. To be noted: monkey liver microsomes, 30 min w/ NADPH. The gist of the method: as §1

Turning to `COc1cc(F)ccc1N1CCN(S(=O)(=O)N2CCCN([C@@H](C)C3CCCCC3)CCCN(S(=O)(=O)c3ccc(N(C)C)cc3)C[C@H](C)C2)CC1` [A203], the IC50 was 14.8 nM in data set [1], 434 nM in data set [2], 30.4 nM in data set [3] and 34.1 nM in [4]. The concentration for a half-maximal effect (EC50) was 396 nM in data set [5] and more than 25000 nM in [6]. For the same compound, in data set [7], the “Liver Microsome Stability-% Left after 30 min w/ NADPH (%) Human” value (“Liver Microsome Stability-% Left … (%) Human” for short) came out at 83.4%. Further, the “Liver Microsome Stability-% Left after 30 min w/ NADPH (%) Mouse” value (shortened to “Liver Microsome Stability-% Left … (%) Mouse”) in data set [8] is listed as 80.3%. Besides, the “Liver Microsome Stability-% Left after 30 min w/ NADPH (%) Rat” value (“Liver Microsome Stability-% Left … (%) Rat” below) in data set [9] stood at 78.7%. Also, in data set [10], the “Liver Microsome Stability-% Left after 30 min w/ NADPH (%) Monkey” value (“Liver Microsome Stability-% Left … (%) Monkey” below) was determined as 77.9%.

Consider `C[C@H]1CN(S(=O)(=O)c2ccc(N(C)C)cc2)CCCN(CCC2CC2)CCCN(S(=O)(=O)N2CCc3cc(Cl)ccc3C2)C1` [A122, 4-{[(3S)-5-[(6-chloro-1,2,3,4-tetrahydroisoquinolin-2-yl)sulfonyl]-9-(2-cyclopropylethyl)-3-methyl-1,5,9-triazacyclododecan-1-yl]sulfonyl}-N,N-dimethylaniline], for which the IC50 amounted to 51.9 nM in data set [1], 885 nM in data set [2], 135 nM in [3] and 111 nM in [4]. For the same compound, the EC50 in data set [5] is 2420 nM; in data set [6] it was more than 25000 nM. Moreover, in data set [7], the “Liver Microsome Stability-% Left … (%) Human” value was determined as 0.38%. In data set [8], the “Liver Microsome Stability-% Left … (%) Mouse” value is 36.4%. The “Liver Microsome Stability-% Left … (%) Rat” value in [9] turned out to be 0.17%. For the same compound, the “Liver Microsome Stability-% Left … (%) Monkey” value in data set [10] turned out to be 0.15%.

For `C[C@H]1CN(S(=O)(=O)c2ccc(N(C)C)cc2)CCCN(CC2CCCCC2)CCCN(S(=O)(=O)N2CCN(c3ccc(F)cc3Cl)CC2)C1` [A206, 4-{[(3S)-5-{[4-(2-chloro-4-fluorophenyl)piperazin-1-yl]sulfonyl}-9-(cyclohexylmethyl)-3-methyl-1,5,9-triazacyclododecan-1-yl]sulfonyl}-N,N-dimethylaniline], the IC50 in data set [1] amounted to 17.4 nM; in data set [2], 395 nM; in data set [3] it was 39 nM; in data set [4], 38.2 nM. In addition, the EC50 in data set [5] is 657 nM; in data set [6] it was more than 25000 nM. For the same compound, the “Liver Microsome Stability-% Left … (%) Human” value in data set [7] was 54.7%. Moreover, the “Liver Microsome Stability-% Left … (%) Mouse” value in data set [8] is 84.3%. The “Liver Microsome Stability-% Left … (%) Rat” value in data set [9] was found to be 80.5%. The “Liver Microsome Stability-% Left … (%) Monkey” value in data set [10] came to 65%.

Consider `C[C@H]1CN(S(=O)(=O)c2ccc(N(C)C)cc2)CCCN(CC2CCCCC2)CCCN(S(=O)(=O)N2CCN(c3ccccc3Cl)CC2)C1` [A198, 4-{[(3S)-5-{[4-(2-chlorophenyl)piperazin-1-yl]sulfonyl}-9-(cyclohexylmethyl)-3-methyl-1,5,9-triazacyclododecan-1-yl]sulfonyl}-N,N-dimethylaniline], for which the IC50 in [1] turned out to be 18.5 nM; in data set [2] it was 373 nM; in data set [3], 53.3 nM; in data set [4] it was 44.1 nM. In addition, the EC50 in data set [5] was 1170 nM; in data set [6], more than 25000 nM. Also, in data set [7], the “Liver Microsome Stability-% Left … (%) Human” value is reported as 39.2%. Also, the “Liver Microsome Stability-% Left … (%) Mouse” value in data set [8] was found to be 68.2%. Moreover, in data set [9], the “Liver Microsome Stability-% Left … (%) Rat” value is 61.4%. The “Liver Microsome Stability-% Left … (%) Monkey” value in [10] came to 65.1%.

Turning to `COc1cc(F)cc(N2[C@H](C)CN(S(=O)(=O)N3CCCN(CC4CCCCC4)CCCN(S(=O)(=O)c4ccc(N(C)C)cc4)C[C@H](C)C3)C[C@@H]2C)c1` [A197], the IC50 was 34.2 nM in data set [1], 666 nM in data set [2], 95.5 nM in data set [3] and 77.5 nM in data set [4]. The EC50 in [5] is 4130 nM; in [6] it was more than 25000 nM. Further, the “Liver Microsome Stability-% Left … (%) Human” value in [7] is reported as 70.7%. Moreover, the “Liver Microsome Stability-% Left … (%) Mouse” value in [8] stood at 65.4%. Further, the “Liver Microsome Stability-% Left … (%) Rat” value in [9] is 76.6%. In addition, in data set [10], the “Liver Microsome Stability-% Left … (%) Monkey” value worked out at 92.8%.

Turning to `COc1cccc([C@@H]2CCCN(S(=O)(=O)N3CCCN(CC4CCCCC4)CCCN(S(=O)(=O)c4ccc(N(C)C)cc4)C[C@H](C)C3)C2)c1` [A209], the IC50 in data set [1] is 327 nM; in data set [2], more than 25000 nM; in data set [3], 673 nM; in [4] it was 498 nM. For the same compound, the EC50 in data set [5] and in [6] was more than 25000 nM each time. In data set [7], the “Liver Microsome Stability-% Left … (%) Human” value is reported as 22.6%. In addition, the “Liver Microsome Stability-% Left … (%) Mouse” value in [8] came out at 31.8%. For the same compound, in [9], the “Liver Microsome Stability-% Left … (%) Rat” value is reported as 44.7%. The “Liver Microsome Stability-% Left … (%) Monkey” value in data set [10] is listed as 45.7%.

Take `C[C@H]1CN(S(=O)(=O)c2ccc(N(C)C)cc2)CCCN(CC(C)(C)C)CCCN(S(=O)(=O)N2CCc3cc(Cl)ccc3C2)C1` [A107, 4-{[(3S)-5-[(6-chloro-1,2,3,4-tetrahydroisoquinolin-2-yl)sulfonyl]-9-(2,2-dimethylpropyl)-3-methyl-1,5,9-triazacyclododecan-1-yl]sulfonyl}-N,N-dimethylaniline]: the IC50 turned out to be 26.1 nM in [1], 609 nM in data set [2], 73 nM in [3] and 44.2 nM in data set [4]. In addition, the EC50 in [5] is 1180 nM; in data set [6], more than 25000 nM. Moreover, in data set [7], the “Liver Microsome Stability-% Left … (%) Human” value turned out to be 83.9%. Further, the “Liver Microsome Stability-% Left … (%) Mouse” value in [8] turned out to be 16.1%. The “Liver Microsome Stability-% Left … (%) Rat” value in data set [9] is listed as 19.3%. For the same compound, in data set [10], the “Liver Microsome Stability-% Left … (%) Monkey” value is 25.0%.

In the case of `C[C@H]1CN(S(=O)(=O)c2ccc(N(C)C)cc2)CCCN(CC2CCCCC2)CCCN(S(=O)(=O)N(C)Cc2ccccc2)C1` [A184, (3S)-N-benzyl-9-(cyclohexylmethyl)-5-[4-(dimethylamino)benzenesulfonyl]-N,3-dimethyl-1,5,9-triazacyclododecane-1-sulfonamide], the IC50 in [1] worked out at 100 nM; in [2], 1080 nM; in data set [3], 233 nM; in data set [4], 156 nM. In addition, the EC50 in [5] was 6920 nM; in data set [6] it was more than 25000 nM. Also, the “Liver Microsome Stability-% Left … (%) Human” value in data set [7] is 2.56%. For the same compound, the “Liver Microsome Stability-% Left … (%) Mouse” value in [8] is 5.64%. In data set [9], the “Liver Microsome Stability-% Left … (%) Rat” value is reported as 7.47%. Besides, in data set [10], the “Liver Microsome Stability-% Left … (%) Monkey” value worked out at 1.23%.

As to `C[C@H]1CN(S(=O)(=O)c2ccc3c(ccn3C)c2)CCCN(CC2CCCCC2)CCCN(S(=O)(=O)N2CCc3cc(Cl)ccc3C2)C1` [A188, 6-chloro-2-{[(3S)-9-(cyclohexylmethyl)-3-methyl-5-[(1-methyl-1 H-indol-5-yl)sulfonyl]-1,5,9-triazacyclododecan-1-yl]sulfonyl}-1,2,3,4-tetrahydroisoquinoline], the IC50 worked out at 38.9 nM in data set [1], 714 nM in [2], 99.3 nM in [3] and 88 nM in data set [4]. Moreover, the results for the EC50 in [5] and in data set [6] were 1560 nM and more than 25000 nM, respectively. In data set [7], the “Liver Microsome Stability-% Left … (%) Human” value is 27%. For the same compound, in data set [8], the “Liver Microsome Stability-% Left … (%) Mouse” value amounted to 4.48%. The “Liver Microsome Stability-% Left … (%) Rat” value in data set [9] is 27.8%. Also, the “Liver Microsome Stability-% Left … (%) Monkey” value in data set [10] was found to be 12.4%.

For the origin of these results see patent US11578055B2, “Triazacyclododecansulfonamide (“TCD”)-based protein secretion inhibitors” (KEZAR LIFE SCIENCES, priority 2018, dated 2023).
